Assay results: patent US20170129916A1, “NOVEL BETULINIC PROLINE IMIDAZOLE DERIVATIVES AS HIV INHIBITORS” (HETERO RESEARCH FOUNDATION, priority 2014, published 2017)

Legend:
[1] = test system: HIV-1 strains, for e.g., 92HT599; test: Antiviral activity: p24 estimation in MT-2 cells infected with HIV-1; format: cell-based; conditions: Human immunodeficiency virus 1, MT2, MT-2 cells infected with HIV-1, p24, ~96 hours; for IC50: read-out: Antiviral activity IC50 (nM) Efficacy IC50
Outline: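 MT-2 cells infected with HIV-1 (e.g. 92HT599), plated at 30,000 cells/well with compound (DMSO ≤1%) and incubated ~96 h. Supernatant p24 quantified by kit; percent inhibition relative to vehicle controls.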

[2] = Single dose oral pharmacokinetic study; format: in vivo; conditions: mouse, mice, 30 mg/kg, plasma; for AUC(0-t): read-out: Mice oral PK @30 mg/kg AUC 0-t; for Cmax: read-out: Mice oral PK @30 mg/kg Cmax
Outline: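 Rats or mice received 30 mg/kg orally at 10 ml/kg dose volume. Retro-orbital blood was taken into K3 EDTA at defined intervals under light ether anesthesia and centrifuged to plasma. Plasma levels were measured by LC-MS-MS.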

Procedure for in vitro: On day 1 calculate the number of cells required for the assay and seed 3×10^4 cells in 200 μl per well. Weigh the compound and dissolve it in DMSO to get 10 mM stock which is further diluted to 3 mM and 1 mM. The drugs from these stocks were added to plate to get final concentration of 100 μM, 30 μM and 10 μM. […] Incubate for 4 days in 5% CO2 incubator at 37° C. On day 4, 100 μl of medium was removed from each well without disturbing the cells. Add 10 μl of MTT reagent and incubate for 4 hours at 5% CO2 incubator at 37° C. for formation of crystals. Add 200 μl of 0.1N acidic isopropanol to dissolve the crystals and read the plate at 590 nm.

Structure (SMILES) | viability at 4 days, 10 μM (in vitro) | viability at 4 days, 30 μM (in vitro) | viability at 4 days, 100 μM (in vitro) | inhibition at 0.1 µM [1] | inhibition at 1 µM [1] | viability at 4 days, 0.1 nM (in vitro) | viability at 4 days, 1 nM (in vitro) | AUC(0-t) [2] | Cmax [2] | IC50 [1]
C=C(C)[C@@H]1CC[C@]2(C(=O)N3CCC[C@H]3c3ncc(-c4ccc(C)c(F)c4)[nH]3)CC[C@]3(C)[C@H](CC[C@@H]4[C@@]5(C)CC[C@H](OC(=O)[C@H]6C[C@@H](C(=O)O)C6(C)C)C(C)(C)[C@@H]5CC[C@]43C)[C@@H]12 [Compound 2, (1R,3S)-3-((((1R,3aS,5aR,5 bR,7aR,9S,11aR,11bR,13aR,13bR)-3a-((S)-2-(5-(3-fluoro-4-methylphenyl)-1H-imidazol-2-yl)pyrrolidine-1-carbonyl)-5a,5b,8,8,11a-pentamethyl-1-(prop-1-en-2-yl)icosahydro-1H-cyclopenta[a]chrysen-9-yl)oxy)carbonyl)-2,2-dimethylcyclobutane-1-carboxylic acid] | 64% | 31% | 5% | 0% | 97% |  |  |  |  | 
C=C(C)[C@@H]1CC[C@]2(C(=O)N3CCC[C@H]3c3ncc(-c4ccc(OCC)cc4)[nH]3)CC[C@]3(C)[C@H](CC[C@@H]4[C@@]5(C)CC[C@H](OC(=O)[C@H]6C[C@@H](C(=O)O)C6(C)C)C(C)(C)[C@@H]5CC[C@]43C)[C@@H]12 [Compound 5, (1R,3S)-3-((((1R,3aS,5aR,5bR,7aR,9S,11aR,11bR,13aR,13bR)-3a-((S)-2-(5-(4-ethoxyphenyl)-1H-imidazol-2-yl)pyrrolidine-1-carbonyl)-5a,5b,8,8,11a-pentamethyl-1-(prop-1-en-2-yl)icosahydro-1H-cyclopenta[a]chrysen-9-yl)oxy)carbonyl)-2,2-dimethylcyclobutane-1-carboxylic acid] | 100% | 100% | 98% | 0% | 100% |  |  |  |  | 
C=C(C)[C@@H]1CC[C@]2(C(=O)N3CCC[C@H]3c3nc(-c4ccc(OC)c(F)c4)c[nH]3)CC[C@]3(C)[C@H](CC[C@@H]4[C@@]5(C)CC[C@H](OC(=O)[C@H]6C[C@@H](C(=O)O)C6(C)C)C(C)(C)[C@@H]5CC[C@]43C)[C@@H]12 [Compound 25, (1R,3S)-3-((((1R,3aS,5aR,5bR,7aR,9S,11aR,11bR,13aR,13bR)-3a-((S)-2-(4-(3-fluoro-4-methoxyphenyl)-1H-imidazol-2-yl)pyrrolidine-1-carbonyl)-5a,5b,8,8,11a-pentamethyl-1-(prop-1-en-2-yl)icosahydro-1H-cyclopenta[a]chrysen-9-yl)oxy)carbonyl)-2,2-dimethylcyclobutane-1-carboxylic acid] | 65% | 32% | 11% | 89% | 99% |  |  |  |  | 
C=C(C)[C@@H]1CC[C@]2(C(=O)N3CCC[C@H]3c3ncc(-c4ccc(C)c(F)c4)[nH]3)CC[C@]3(C)[C@H](CC[C@@H]4[C@@]5(C)CC[C@H](OC(=O)CC(C)(C)C(=O)O)C(C)(C)[C@@H]5CC[C@]43C)[C@@H]12 [Compound 40] | 80% | 48% | 25% | 29% | 99% |  |  |  |  | 
CC(C)(CC(=O)O[C@H]1CC[C@]2(C)[C@H]3CC[C@@H]4[C@H]5[C@H](C(C)(O)CO)CC[C@]5(C(=O)N5CCC[C@@H]5c5nc(-c6ccccc6)no5)CC[C@@]4(C)[C@]3(C)CC[C@H]2C1(C)C)C(=O)O (stereo partly drawn) [Compound 42, 4-(((1R,3aS,5aR,5bR,7aR,9S,11aR,11bR,13aR,13bS)-1-(1,2-dihydroxypropan-2-yl)-5a,5b,8,8,11a-pentamethyl-3a-((R)-2-(3-phenyl-1,2,4-oxadiazol-5-yl)pyrrolidine-1-carbonyl)icosahydro-1H-cyclopenta[a]chrysen-9-yl)oxy)-2,2-dimethyl-4-oxobutanoic acid] |  |  |  | 63% | 73% | 94% | 94% |  |  | 
COCCO[C@@H]1C[C@@H](c2nc(-c3cccc(F)c3)c[nH]2)N(C(=O)[C@]23CC[C@@H](C4(C)CC4)[C@@H]2[C@H]2CC[C@@H]4[C@@]5(C)CC[C@H](OC(=O)[C@H]6C[C@@H](C(=O)O)C6(C)C)C(C)(C)[C@@H]5CC[C@@]4(C)[C@]2(C)CC3)C1 [Compound 54, (1R,3S)-3-((((1R,3aS,5aR,5bR,7aR,9S,11aR,11bR,13aR,13bR)-3a-((2S,4R)-2-(4-(3-fluorophenyl)-1H-imidazol-2-yl)-4-(2-methoxyethoxy)pyrrolidine-1-carbonyl)-5a,5b,8,8,11a-pentamethyl-1-(1-methylcyclopropyl)icosahydro-1H-cyclopenta[a]chrysen-9-yl)oxy)carbonyl)-2,2-dimethylcyclobutane-1-carboxylic acid] | 49% | 16% | 6% | 13% | 93% |  |  |  |  | 
CC(C)(CC(=O)O)CC(=O)O[C@H]1CC[C@]2(C)[C@H]3CC[C@@H]4[C@H]5[C@H](C6(C)CC6)CC[C@]5(C(=O)N5CCC[C@H]5c5ncc(-c6cccc(F)c6)[nH]5)CC[C@@]4(C)[C@]3(C)CC[C@H]2C1(C)C [Compound 64, 5-(((1R,3aS,5aR,5bR,7aR,9S,11aR,11bR,13aR,13bR)-3a-((S)-2-(5-(3-fluorophenyl)-1H-imidazol-2-yl)pyrrolidine-1-carbonyl)-5a,5b,8,8,11a-pentamethyl-1-(1-methylcyclopropyl)icosahydro-1H-cyclopenta[a]chrysen-9-yl)oxy)-3,3-dimethyl-5-oxopentanoic acid] |  |  |  |  |  |  |  | 105 µg·h/mL | 5250 ng/mL | 14.6 nM
CC(C)(CC(=O)O[C@H]1CC[C@]2(C)[C@H]3CC[C@@H]4[C@H]5[C@H](C6(C)CC6)CC[C@]5(C(=O)N5CCC[C@H]5c5ncc(-c6cccc(F)c6)[nH]5)CC[C@@]4(C)[C@]3(C)CC[C@H]2C1(C)C)C(=O)O [Compound 65, 4-(((1R,3aS,5aR,5bR,7aR,9S,11aR,11bR,13aR,13bR)-3a-((S)-2-(5-(3-fluorophenyl)-1H-imidazol-2-yl)pyrrolidine-1-carbonyl)-5a,5b,8,8,11a-pentamethyl-1-(1-methylcyclopropyl)icosahydro-1H-cyclopenta[a]chrysen-9-yl)oxy)-2,2-dimethyl-4-oxobutanoic acid] |  |  |  |  |  |  |  | 203 µg·h/mL | 13300 ng/mL | 15.7 nM
COCCOc1ccc(-c2cnc([C@@H]3CCCN3C(=O)[C@]34CC[C@@H](C5(C)CC5)[C@@H]3[C@H]3CC[C@@H]5[C@@]6(C)CC[C@H](OC(=O)CC(C)(C)C(=O)O)C(C)(C)[C@@H]6CC[C@@]5(C)[C@]3(C)CC4)[nH]2)cc1 [Compound 66] |  |  |  |  |  |  |  | 62.1 µg·h/mL | 6590 ng/mL | 0.73 nM
COCCO[C@@H]1C[C@@H](c2nc(-c3ccc(F)cc3)c[nH]2)N(C(=O)[C@]23CC[C@@H](C4(C)CC4)[C@@H]2[C@H]2CC[C@@H]4[C@@]5(C)CC[C@H](OC(=O)CC(C)(C)C(=O)O)C(C)(C)[C@@H]5CC[C@@]4(C)[C@]2(C)CC3)C1 [Compound 67, 4-(((1R,3aS,5aR,5bR,7aR,9S,11aR,11bR,13aR,13bR)-3a-((2S,4R)-2-(4-(4-fluorophenyl)-1H-imidazol-2-yl)-4-(2-methoxyethoxy)pyrrolidine-1-carbonyl)-5a,5b,8,8,11a-pentamethyl-1-(1-methylcyclopropyl)icosahydro-1H-cyclopenta[a]chrysen-9-yl)oxy)-2,2-dimethyl-4-oxobutanoic acid] |  |  |  |  |  |  |  | 247 µg·h/mL | 12300 ng/mL | 0.44 nM
CC(C)(CC(=O)O[C@H]1CC[C@]2(C)[C@H]3CC[C@@H]4[C@H]5[C@H](C6(C)CC6)CC[C@]5(C(=O)N5CCC(c6ncc(-c7ccccc7)[nH]6)CC5)CC[C@@]4(C)[C@]3(C)CC[C@H]2C1(C)C)C(=O)O [Compound 68, 2,2-dimethyl-4-oxo-4-(((1R,3aS,5aR,5bR,7aR,9S,11aR,11bR,13aR,13bR)-5a,5b,8,8,11a-pentamethyl-1-(1-methylcyclopropyl)-3a-(4-(5-phenyl-1H-imidazol-2-yl)piperidine-1-carbonyl)icosahydro-1H-cyclopenta[a]chrysen-9-yl)oxy)butanoic acid] |  |  |  |  |  |  |  | 23.5 µg·h/mL | 2020 ng/mL | 12.8 nM
CC(C)(CC(=O)O)CC(=O)O[C@H]1CC[C@]2(C)[C@H]3CC[C@@H]4[C@H]5[C@H](C6(C)CC6)CC[C@]5(C(=O)N5CCC[C@H]5c5ncc(-c6ccc(F)cc6)[nH]5)CC[C@@]4(C)[C@]3(C)CC[C@H]2C1(C)C [Compound 70, 5-(((1R,3aS,5aR,5bR,7aR,9S,11aR,11bR,13aR,13bR)-3a-((S)-2-(5-(4-fluorophenyl)-1H-imidazol-2-yl)pyrrolidine-1-carbonyl)-5a,5b,8,8,11a-pentamethyl-1-(1-methylcyclopropyl)icosahydro-1H-cyclopenta[a]chrysen-9-yl)oxy)-3,3-dimethyl-5-oxopentanoic acid] |  |  |  | 84% | 99% |  |  | 172 µg·h/mL | 10000 ng/mL | 
